Reference: US9440960B2, “Substituted oxetanes and their use as inhibitors of cathepsin C” (Boehringer Ingelheim International GmbH, priority 2014, dated 2016)

Target: T1, recombinant human DPPI (Cathepsin C) (Homo sapiens, UniProt P53634)
T1 construct: purchased Prozymex
Assay: Inhibition of Human DPPI (Cathepsin C)
Type: biochemical
Settings: substrate Gly-Arg-AMC 50 μM, MES buffer pH 6.0, 30 min at room temperature, fluorescence readout
Description: Inhibition of Human DPPI (Cathepsin C)
Materials: Microtiterplates (Optiplate-384 F) were purchased from PerkinElmer (Prod.No. 10 6007270). The substrate Gly-Arg-AMC was from Biotrend (Prod.-No. 808756 Custom peptide).
Bovine serum albumin (BSA; Prod.No. A3059) and Dithiothreitol (DTT; Prod.No D0632) were from Sigma. TagZyme buffer was from Riedel-de-Haen (Prod.-No. 04269), NaCl was from Merck (Prod.-No. 1.06404.1000) and morpholinoethane sulfonic acid (MES), was from Serva (Prod.-No.
29834). The DPP1 inhibitor Gly-Phe-DMK was purchased from MP Biomedicals 15 (Prod.-No. 03DK00625). The recombinant human DPPI was purchased from Prozymex. All other materials were of highest grade commercially available.
The following buffers were used: MES buffer: 25 mM MES, 50 mM NaCl, 5 mM DTT, adjusted to pH 6.0, containing 0.1% BSA; TAGZyme Buffer: 20 mM NaH2PO4, 150 mM NaCl adjusted to pH […]
Assay conditions: The recombinant human DPPI was diluted in TAGZyme buffer to 1 U/ml (38.1 μg/ml, respectively), and then activated by mixing in a 1:2 ratio with a Cysteamine aqueous solution (2 mM) and incubating for 5 min at room temperature.
Five uL test compound (final concentration 0.1 nM to 100 μM) in aqua bidest 5 (containing 4% DMSO, final DMSO concentration 1%) were mixed with 10 μL of DPPI in MES buffer (final concentration 0.0125 ng/μL) and incubated for 10 min. Then, 5 μL of substrate in MES buffer (final concentration 50 μM) were added. The microtiter plates were then incubated at room temperature for 30 min. Then, the reaction was stopped by adding 10 μL of Gly-Phe-DMK in 10 MES-buffer (final concentration 1 μM). The fluorescence in the wells was determined using a Molecular Devices SpectraMax M5 Fluorescence Reader (Ex 360 nm, Em 460 nm) or an Envision Fluorescence Reader (Ex 355 nm, Em 460 nm).
Each assay microtiter plate contained wells with vehicle controls (1% DMSO in bidest+0.075% 15 BSA) as reference for non-inhibited enzyme activity (100% Ctl; high values) and wells with inhibitor (Gly-Phe-DMK, in bidest+1% DMSO+0.075% BSA, final concentration 1 μM) as controls for background fluorescence (0% Ctl; low values).
The analysis of the data was performed by calculating the percentage of fluorescence in the presence of test compound in comparison to the fluorescence of the vehicle control after 20 subtracting the background fluorescence using the following formula: (RFU(sample)−RFU(background))*100/(RFU(control)−RFU(background)) […]
Data from these calculations were used to generate IC50 values for inhibition of DPPI, respectively.

T1 sequence (P53634 231-394 limits assumed): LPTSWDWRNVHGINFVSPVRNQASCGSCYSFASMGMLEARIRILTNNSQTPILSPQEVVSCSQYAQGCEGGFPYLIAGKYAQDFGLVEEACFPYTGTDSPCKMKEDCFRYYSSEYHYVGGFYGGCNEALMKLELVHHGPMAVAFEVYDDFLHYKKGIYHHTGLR
T1 sequence (P53634 395-463 limits assumed): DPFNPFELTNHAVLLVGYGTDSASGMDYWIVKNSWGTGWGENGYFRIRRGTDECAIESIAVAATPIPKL
T1 sequence (P53634 25-143 limits assumed): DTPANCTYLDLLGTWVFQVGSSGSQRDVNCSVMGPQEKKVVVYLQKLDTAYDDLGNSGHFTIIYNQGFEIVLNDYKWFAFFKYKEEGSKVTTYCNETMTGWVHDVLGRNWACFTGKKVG

SMILES	IC50
N#C[C@H](Cc1ccc(N2C3CCC2CN(C2COC2)C3)cc1F)NC(=O)[C@H]1N[C@@H]2CC[C@H]1C2 [Example 2]	0.0144 µM
N#C[C@H](Cc1ccc(N2CCC3C2CCN3C2COC2)cc1F)NC(=O)[C@H]1N[C@@H]2CC[C@H]1C2 (stereo partly drawn) [Example 9]	0.0176 µM
N#C[C@H](Cc1ccc(N2CCC3CN(C4COC4)CC32)cc1F)NC(=O)[C@H]1N[C@@H]2CC[C@H]1C2 (stereo partly drawn) [Example 7]	0.0099 µM
N#C[C@H](Cc1ccc(C2CCCN(C3COC3)C2)cc1F)NC(=O)[C@H]1N[C@@H]2CC[C@H]1C2 (stereo partly drawn) [Example 11]	0.0527 µM
N#C[C@H](Cc1ccc(N2CCN(C3COC3)CC2)cc1F)NC(=O)[C@H]1N[C@@H]2CC[C@H]1C2 [Example 1, (1S,2S,4R)—N-[(1S)-1-cyano-2-[2-fluoro-4-[4-(oxetan-3-yl)piperazin-1-yl]phenyl]ethyl]-3-azabicyclo[2.2.1]heptane-2-carboxamide]	0.0117 µM
N#C[C@H](Cc1ccc(C2CCN(C3COC3)CC2)cc1F)NC(=O)[C@H]1N[C@@H]2CC[C@H]1C2 [Example 10, (1S,2S,4R)—N-[(1S)-1-cyano-2-[2-fluoro-4-[1-(oxetan-3-yl)-4-piperidyl]phenyl]ethyl]-3-azabicyclo[2.2.1]heptane-2-carboxamide]	0.0601 µM

Further compounds by falling IC50, results first:

IC50	SMILES
0.0797 µM	N#C[C@H](Cc1ccc(C2CC3CN(C4COC4)CC3C2)cc1F)NC(=O)[C@H]1N[C@@H]2CC[C@H]1C2 (stereo partly drawn) [Example 13]
0.0665 µM	N#C[C@H](Cc1ccc(N2CCN(C3COC3)CC2)cc1F)NC(=O)C12CCC(CC1)CN2 [Example 15, N-[(1S)-1-cyano-2-[2-fluoro-4-[4-(oxetan-3-yl)piperazin-1-yl]phenyl]ethyl]-2-azabicyclo[2.2.2]octane-1-carboxamide]
0.0355 µM	N#C[C@H](Cc1ccc(N2CCC3C2CCN3C2COC2)cc1F)NC(=O)[C@H]1N[C@@H]2CC[C@H]1C2 (stereo partly drawn) [Example 8]
0.0294 µM	N#C[C@H](Cc1ccc(C2CCN(C3COC3)C2)cc1F)NC(=O)[C@H]1N[C@@H]2CC[C@H]1C2 (stereo partly drawn) [Example 12]
0.0293 µM	N#C[C@H](Cc1ccc(C2CC3CN(C4COC4)CC3C2)cc1F)NC(=O)[C@H]1N[C@@H]2CC[C@H]1C2 (stereo partly drawn) [Example 14]
0.0216 µM	N#C[C@H](Cc1ccc(N2CC3(C2)CN(C2COC2)C3)cc1F)NC(=O)[C@H]1N[C@@H]2CC[C@H]1C2 [Example 3]
0.0165 µM	N#C[C@H](Cc1ccc(N2CC3CN(C4COC4)CC3C2)cc1F)NC(=O)[C@H]1N[C@@H]2CC[C@H]1C2 (stereo partly drawn) [Example 5, (1S,2S,4R)—N-[(1S)-1-cyano-2-[2-fluoro-4-[5-(oxetan-3-yl)-1,3,3a,4,6,6a-hexahydropyrrolo[3,4-c]pyrrol-2-yl]phenyl]ethyl]-3-azabicyclo[2.2.1]heptane-2-carboxamide]
0.0135 µM	N#C[C@H](Cc1ccc(N2CC3CCN(C4COC4)C3C2)cc1F)NC(=O)[C@H]1N[C@@H]2CC[C@H]1C2 (stereo partly drawn) [Example 6]
0.0056 µM	N#C[C@H](Cc1ccc(C2=CCN(C3COC3)CC2)cc1F)NC(=O)[C@H]1N[C@@H]2CC[C@H]1C2 [Example 4, (1S,2S,4R)—N-[(1S)-1-cyano-2-[2-fluoro-4-[1-(oxetan-3-yl)-3,6-dihydro-2H-pyridin-4-yl]phenyl]ethyl]-3-azabicyclo[2.2.1]heptane-2-carboxamide]
